Like-named read-outs stand apart in the source and are kept apart here.
Legend:
SARS-CoV-2 [1] = assay type: cell-based; settings: 250 nM, Vero E6 cells, 48 h
SARS-CoV-2 [2] = test: microbe, parasite or virus in culture; assay type: cell-based; settings: for IC50: IFA, read-out: IC50, inhibition of SARS-CoV-2 infectivity
SARS-CoV-2 [3] = test: SARS-CoV-2 infection of HEK293-ACE2 cells (IFA); assay type: cell-based; settings: 250 nM, pre-treated 24 hours, one day post-infection
hiPSC-CMs = test: Cardiomyocyte beating / in vitro cardiotoxicity in hiPSC-CMs; assay type: cell-based, human; settings: 250 nM
Description: Thus, we used the human-induced pluripotent stem-cell-derived cardiomyocyte (hiPSC-CM) system for antiviral drug testing against SARS-CoV-2. […] Thus, this cardiomyocyte system is useful for antiviral drug testing against SARS-CoV-2. […] The inhibition of virus production by berzosertib was evaluated by quantifying the infectious virus (TCID50) in the supernatant at various time points (Figure 2B). […] Infection of cardiomyocytes with SARS-CoV-2 was confirmed by specific staining of cardiac troponin T (cTnT) and viral spike proteins (Figure 2E). Untreated SARS-CoV-2-infected cells had infection-mediated cell injury with disrupted troponin T fibers.

SARS-CoV-2 [4] = assay type: cell-based; settings: hiPSC-CMs; 250 nM
[5] = HeLa-ACE2 uninfected host cell cytotoxicity counter screen; assay type: cell-based; settings: human, uninfected HeLa-ACE2 cells; read-out: median cytotoxic concentration (CC50)
Description: Compounds were acoustically transferred into 1,536-well μclear plates (Greiner Part. No. 789091). HeLa-ACE2 cells were maintained as described for the infection assay and seeded in the assay-ready plates at 400 cells/well in DMEM with 2% FBS and plates were incubated for 24 hours at 37°C 5% CO2. To assess cell viability, the Image-iT DEAD green reagent (Thermo Fisher) was used according to manufacturer instructions. Cells were fixed with 4% paraformaldehyde, and counterstained with DAPI.

SARS-CoV-2 [6] = test: microbe, parasite or virus in culture; assay type: cell-based; settings: Severe acute respiratory syndrome coronavirus 2, Calu-3 cells, read-out: IC50, SARS-CoV-2 viral titer
SARS-CoV-2 [7] = settings: HeLa-ACE2 cells
SARS-CoV-2 [8] = test: microbe, parasite or virus in culture; assay type: cell-based; settings: Severe acute respiratory syndrome coronavirus 2, A549-ACE2, 24 h, 24 h, read-out: IC50, SARS-CoV-2 immunostaining signal
[9] = Severe acute respiratory syndrome coronavirus 2, Vero C1008, Vero E6 cells

Molecule	antiviral activity (prevention of viral CPE) in primary screen (SARS-CoV-2 [1])	other results
N#C/C(=C/c1ccc(O)c(O)c1)C(=O)NCc1ccccc1 [AG-490]	antiviral activity	
O=C1NC(=O)/C(=C/c2ccc3c(c2)OC(F)(F)O3)S1 [AS-604850]	antiviral activity	
CNC(=O)c1cccc(-c2ccc3c(N4CCOC[C@@H]4C)nc(N4CCOC[C@@H]4C)nc3n2)c1 [AZD2014, Vistusertib]	antiviral activity	IC50 (SARS-CoV-2 [2]; [9]): 34 nM; IC50 (SARS-CoV-2 [2]; Vero E6 cells): < 25 nM; anti-viral activity in secondary screen (SARS-CoV-2 [3]): not exhibited potent anti-viral activity
COc1ccc(-c2ccc3c(N4CCOC[C@@H]4C)nc(N4CCOC[C@@H]4C)nc3n2)cc1CO [AZD8055]	antiviral activity	
CO[C@H]1CC[C@H](N2C(=O)CNc3ncc(-c4ccc(C(C)(C)O)nc4)nc32)CC1 [CC-223, Onatasertib]	antiviral activity	
COc1cc2ncnc(Oc3cccc(NC(=O)Nc4cc(C(C)(C)C(F)(F)F)on4)c3)c2cc1OC [CEP-32496]	antiviral activity	
CS(=O)(=O)N1CCc2c(-c3cnc(N)nc3)nc(N3CCOCC3)nc21 [CH5132799]	antiviral activity	
Cn1c(=O)n(-c2ccc(C(C)(C)C#N)cc2)c2c3cc(-c4cnc5ccccc5c4)ccc3ncc21 [Dactolisib]		cardiomyocyte beating (beats per minute) (hiPSC-CMs; SARS-CoV-2-infected hiPSC-CMs): affected the cardiomyocyte functional beating; in vitro cardiotoxicity (hiPSC-CMs; hiPSC-CMs): had cardiotoxicity; IC50 (SARS-CoV-2 [2]; [9]): 111 nM; virus production (infectious virus, TCID50, in supernatant) (SARS-CoV-2 [4]): inhibited viral production
Cn1cc(C2=C(c3cn(C4CCN(Cc5ccccn5)CC4)c4ccccc34)C(=O)NC2=O)c2ccccc21 [Enzastaurin]	antiviral activity	
CS(=O)(=O)N1CCN(Cc2cc3nc(-c4cccc5[nH]ncc45)nc(N4CCOCC4)c3s2)CC1 [GDC-0941, Pictilisib]	antiviral activity	
Cc1c(CN2CCN(C(=O)[C@H](C)O)CC2)sc2c(N3CCOCC3)nc(-c3cnc(N)nc3)nc12 [GDC-0980]	antiviral activity	
CCS(=O)(=O)Nc1ccc2c(c1)/C(=C(/Nc1ccc(CN3CCCCC3)cc1)c1ccccc1)C(=O)N2 [Hesperadin]	antiviral activity	
C[C@H](Nc1ncnc2nc[nH]c12)c1cc2cccc(Cl)c2c(=O)n1-c1ccccc1 [IPI-145]	antiviral activity	
Cn1cc(-c2ccc3nnc(C(F)(F)c4ccc5ncccc5c4)n3n2)cn1 [JNJ-38877605]	antiviral activity	
COc1cc2nccc(Oc3ccc(NC(=O)Nc4ccc(F)cc4F)c(F)c3)c2cc1OC [Ki8751]	antiviral activity	
Cc1ccc(C(=O)Nc2cccc(C(F)(F)F)c2)cc1Nc1nc(-c2cccnc2)nc2c1cnn2C [NVP-BHG712]	antiviral activity	
Cc1cn(-c2cc(NC(=O)c3ccc(C)c(Nc4nccc(-c5cccnc5)n4)c3)cc(C(F)(F)F)c2)cn1 [Nilotinib]	antiviral activity	IC50 (SARS-CoV-2 [2]; [9]): 50 to 125 nM; anti-viral activity in secondary screen (SARS-CoV-2 [3]): not exhibited potent anti-viral activity

Molecule	antiviral activity (prevention of viral CPE) in primary screen (SARS-CoV-2 [1])	other results
CSc1cccc(Nc2ncc3cc(-c4c(Cl)cccc4Cl)c(=O)n(C)c3n2)c1 [PD173955]	antiviral activity	
CC(=O)Nc1nc(C)c(-c2ccc(Cl)c(S(=O)(=O)NCCO)c2)s1 [PIK-93]	antiviral activity	
Nc1ncnc2c1c(-c1cnc3[nH]ccc3c1)nn2C1CCCC1 [PP121]	antiviral activity	
CCCCCCCCCCCCCCCCCCOP(=O)([O-])OC1CC[N+](C)(C)CC1 [Perifosine]	antiviral activity	
CCC(CC)COC(=O)[C@H](C)N[P@](=O)(OC[C@H]1O[C@@](C#N)(c2ccc3c(N)ncnn23)[C@H](O)[C@@H]1O)Oc1ccccc1 [Remdesivir]		CC50 at 24 h [5]: > 10000 nM; IC50 (SARS-CoV-2 [6]): 150 nM; median effective dose (ED50), percentage of infected cells (SARS-CoV-2 [7]): 124 nM; IC50 (SARS-CoV-2 [8]): 160 nM; IC50 (SARS-CoV-2 [8]; A549-ACE2 cells, […]): 200 nM
O=C1c2ccc(Nc3ccc(F)cc3F)cc2CCc2ccc(OC[C@H](O)CO)cc21 [Skepinone-L]	antiviral activity	
Nc1ccc(-c2ccc3ncc4ccc(=O)n(-c5cccc(C(F)(F)F)c5)c4c3c2)cn1 [Torin 2]	antiviral activity	IC50 (SARS-CoV-2 [2]; Vero E6 cells): < 25 nM
CN1CCN(Cc2ccc(-c3cnc4[nH]cc(-c5ccc6[nH]ccc6c5)c4c3)cc2)CC1 [URMC-099]	antiviral activity	IC50 (SARS-CoV-2 [2]; [9]): 50 to 125 nM
CC(C)(O)CNc1ncc(-c2ccnc(Nc3ccnc(Cl)c3)n2)c(CC2CC2)n1 [VPS34-IN1]	antiviral activity	IC50 (SARS-CoV-2 [2]; [9]): 50 to 125 nM
NC(=O)c1ccc(N(C(N)=O)c2c(F)cccc2F)nc1-c1ccc(F)cc1F [VX-702]	antiviral activity	
O=c1ncn2nc(Sc3ccc(F)cc3F)ccc2c1-c1c(Cl)cccc1Cl [VX-745]	antiviral activity	
CNC(=O)Nc1ccc(-c2nc(N3CC4CCC(C3)O4)c3cnn(C4CCC5(CC4)OCCO5)c3n2)cc1 [WYE-125132]	antiviral activity	
Nc1ccc(C(=O)Nc2cccc(-c3nc(N4CCOCC4)c4oc5ncccc5c4n3)c2)cn1 [YM201636]	antiviral activity	
COc1cc2c(Nc3ccc(NC(=O)c4ccccc4)cc3)ncnc2cc1OCCCN1CCOCC1 [ZM 447439]	antiviral activity	
FC(F)c1nc2ccccc2n1-c1nc(N2CCOCC2)nc(N2CCOCC2)n1 [ZSTK474]	antiviral activity	
IFN-α		blocking of SARS-CoV-2 infection (IFA) (SARS-CoV-2 [2]; Vero E6 cells, 48 hpi, hydroxychloroquine and EIDD-2801 10 μM): effectively blocked

From PMC7969873 (Cell Reports, 2021)
